In patent US20230322715A1, “BROAD SPECTRUM ANTI-CANCER COMPOUNDS” (The Regents of the University of California, priority 2019, published 2023):
Several values for one entry are separate records, joined by “and”; a condition that tells them apart may be missing. Identical values can stand only once. Like-named read-outs stand apart in the source and are kept apart here. Values belong to the molecule of their own block, whether it stands above or below them.

Key:
ALKBH5 = ALKBH5 (Homo sapiens (Human), UniProt Q6P6C2); assay: Fluorescence enzymatic inhibition assay (m6A7-Broccoli RNA / DFHBI-1T) against ALKBH5; assay type: biochemical
Procedure: (§1) Inhibitors were added in concentrations ranging from 0.008-40 μM; all inhibitors were dissolved in DMSO and added to a final concentration of 0.2% DMSO. […] After incubation at room temperature for 2 hours, the plates were left at 4° C. overnight (16 hours) to allow DFHBI-1T to bind to A7-Broccoli RNA. […] Sigmoidal dose-response curves were fitted in GraphPad Prism 6. All assays were performed in triplicate, with additional repetitions added as necessary.

FTO = FTO (Homo sapiens (Human), UniProt Q9C0B1); assay: Fluorescence enzymatic inhibition assay (m6A7-Broccoli RNA / DFHBI-1T) against FTO; assay type: biochemical
Procedure: In order to determine their efficacy as FTO inhibitors, the compounds were screened by a fluorescence enzymatic inhibition assay developed previously by the Jaffrey lab.^44 Briefly, a nonfluorescent methylated RNA substrate termed “m6A7-Broccoli” is incubated with FTO in the presence of 2-oxoglutarate (300 μM), (NH4)2Fe(SO4)2·6H2O (300 μM), and L-ascorbate (2 mM) for 2 hours at room temperature in reaction buffer (50 mM NaHEPES, pH 6).
as §1

[1] = elogD / log D determination
YTHDF2 = YTHDF2 (Homo sapiens (Human), UniProt Q9Y5A9); assay: In vitro FRET assay for binding affinities of YTH inhibitors, YTHDF2
From the text: FIG. 8-2 depicts possible design and synthesis of compound libraries. In Vitro FRET assay development could yield a high throughput FRET assay to determine binding affinities for potential YHT inhibitors against YTHDF1, YTHDF2, YTHDF3, or other similar proteins.

[2] = Table 700 compounds, read-out: Enzymatic IC50 FTO
[3] = Table 700 compounds, read-out: Enzymatic IC50 ALKBH5
[4] = Table 800 compounds, read-out: FTO IC50
[5] = Table 800 compounds, read-out: ALKBH5 IC50
[6] = m6A7-Broccoli fluorescence assay, 0.250 μM FTO, inhibitor up to 40 μM, triplicate, read-out: Enzymatic IC50 FTO
[7] = m6A7-Broccoli fluorescence assay, 0.250 μM ALKBH5, read-out: Enzymatic IC50 ALKBH5

Sequence of ALKBH5 (Q6P6C2 whole entry): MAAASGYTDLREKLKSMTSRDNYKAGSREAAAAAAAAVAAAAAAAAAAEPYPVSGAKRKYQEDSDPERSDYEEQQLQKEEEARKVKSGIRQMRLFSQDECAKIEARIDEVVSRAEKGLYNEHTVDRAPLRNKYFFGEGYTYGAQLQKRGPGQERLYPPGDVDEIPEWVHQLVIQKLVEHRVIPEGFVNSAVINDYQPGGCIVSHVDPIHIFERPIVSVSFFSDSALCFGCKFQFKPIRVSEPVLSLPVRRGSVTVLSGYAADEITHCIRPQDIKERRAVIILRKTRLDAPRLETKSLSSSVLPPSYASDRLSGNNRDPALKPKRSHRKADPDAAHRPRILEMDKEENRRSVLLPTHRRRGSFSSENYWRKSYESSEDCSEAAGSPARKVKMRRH
Sequence of YTHDF2 (Q9Y5A9 whole entry): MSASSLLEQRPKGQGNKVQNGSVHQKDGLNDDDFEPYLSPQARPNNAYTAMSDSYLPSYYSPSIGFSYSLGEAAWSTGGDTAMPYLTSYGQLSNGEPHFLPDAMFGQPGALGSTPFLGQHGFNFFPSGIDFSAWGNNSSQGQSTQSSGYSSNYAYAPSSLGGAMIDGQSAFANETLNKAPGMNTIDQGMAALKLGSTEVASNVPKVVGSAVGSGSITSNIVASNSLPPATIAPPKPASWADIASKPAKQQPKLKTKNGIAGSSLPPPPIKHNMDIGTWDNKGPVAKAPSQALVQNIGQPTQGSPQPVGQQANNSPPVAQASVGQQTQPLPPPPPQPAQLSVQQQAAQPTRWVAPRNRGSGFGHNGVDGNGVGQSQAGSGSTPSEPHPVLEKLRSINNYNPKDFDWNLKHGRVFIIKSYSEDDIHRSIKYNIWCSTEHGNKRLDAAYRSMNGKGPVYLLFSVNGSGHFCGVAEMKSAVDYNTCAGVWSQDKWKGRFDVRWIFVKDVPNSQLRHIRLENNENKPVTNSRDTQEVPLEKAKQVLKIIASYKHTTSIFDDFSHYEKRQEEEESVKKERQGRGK
Sequence of FTO (Q9C0B1 whole entry): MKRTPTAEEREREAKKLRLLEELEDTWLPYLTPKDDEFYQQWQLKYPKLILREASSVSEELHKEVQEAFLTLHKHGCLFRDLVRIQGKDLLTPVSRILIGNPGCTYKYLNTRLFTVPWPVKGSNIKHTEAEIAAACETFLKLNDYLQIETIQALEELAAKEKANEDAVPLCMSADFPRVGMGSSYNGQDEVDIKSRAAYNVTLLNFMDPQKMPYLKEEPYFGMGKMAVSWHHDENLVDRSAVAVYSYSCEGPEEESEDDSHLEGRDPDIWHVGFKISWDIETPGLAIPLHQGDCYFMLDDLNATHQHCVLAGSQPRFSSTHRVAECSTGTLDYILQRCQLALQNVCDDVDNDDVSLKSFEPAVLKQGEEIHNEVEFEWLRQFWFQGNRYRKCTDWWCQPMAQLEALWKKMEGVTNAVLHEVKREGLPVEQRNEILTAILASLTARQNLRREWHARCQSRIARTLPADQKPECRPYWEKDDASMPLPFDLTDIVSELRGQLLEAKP

Compound: COC(=O)C1COC(c2cc(C(C)(C)C)ccc2O)N1 (stereo not drawn) [ALK-19]
IC50 (ALKBH5; ALK series, permeability data and IC50 tables, read-out: Enzymatic IC50 ALKBH5): 24 ± 4.2 µM

Compound: C[C@]1(Cn2ccnn2)C(C(=O)O)N2C(=O)C[C@H]2S1(=O)=O (stereo partly drawn) [ALK-08]
IC50 (FTO; [2]): > 40 µM
IC50 (ALKBH5; [3]): 9.9 ± 1.3 µM
elogD ([1]; Table 700 compounds): 0.36

Compound: O=S(=O)(NCc1ccccn1)c1ccc(OC(F)(F)F)cc1 [TR-ALKBH5-32]
IC50 (FTO; [4]): > 40 µM
IC50 (ALKBH5; [5]): 2.2 µM
elogD ([1]; Table 800 compounds): 2.25

Compound: Fc1cccc2c(CNCC3(N4CCCC4)COC3)c[nH]c12 [TR-FTO-16]
IC50 (FTO; [6]): 2.2 µM
IC50 (ALKBH5; [7]): 0.87 µM

Compound: O=S(=O)(NCC1CCCOC1)c1ccccc1 (stereo not drawn) [TR-ALKBH5-08]
IC50 (FTO; [4]): 6.4 µM
IC50 (ALKBH5; [5]): 0.5 µM
elogD ([1]; Table 800 compounds): 0.89

Compound: O=S(=O)(Nc1cccs1)c1ccc(OC(F)(F)F)cc1 [TR-ALKBH5-27]
IC50 (FTO; [4]): > 40 µM
IC50 (ALKBH5; [5]): 2 µM
elogD ([1]; Table 800 compounds): 0.36

Compound: COC(=O)C1COC(c2ccc(OC)c(Cl)c2)N1 (stereo not drawn) [ALK-23]
IC50 (FTO; [2]): > 40 µM
IC50 (ALKBH5; [3]): 2.8 ± 0.5 µM
elogD ([1]; Table 700 compounds): 3.01

Compound: COc1ncc(-c2ccc3cc(O)ccc3c2)cn1 [FTO-2, 6-(2-methoxypyrimidin-5-yl)naphthalen-2-ol]
IC50 (ALKBH5; [7]): 85.5 µM

Compound: O=S(=O)(Nc1cc(F)ccc1O)c1ccc(OC(F)(F)F)cc1 [TR-ALKBH5-30]
IC50 (FTO; [4]): > 40 µM
IC50 (ALKBH5; [5]): 1 µM
elogD ([1]; Table 800 compounds): 0.81

Compound: CCOC(=O)C1CC1C1NCCS1 (stereo not drawn) [ALK-01]
IC50 (FTO; [2]): 103 µM and > 40 µM
IC50 (ALKBH5; [3]): 17.5 µM
elogD ([1]; Table 700 compounds): 0.58

Compound: O=S(=O)(NCC1CCCOC1)c1ccc(OC(F)(F)F)cc1 (stereo not drawn) [TR-ALKBH5-04]
IC50 (FTO; [4]): 19.7 µM
IC50 (ALKBH5; [5]): 0.24 µM
elogD ([1]; Table 800 compounds): 0.37

Compound: Fc1ccc2[nH]cc(CNCC3(N4CCCC4)COC3)c2c1 [TR-FTO-11]
IC50 (ALKBH5; [7]): 6.6 µM

Compound: O=S(=O)(Nc1ccc(Cl)c(Cl)c1)c1ccc(OC(F)(F)F)cc1 [TR-ALKBH5-33]
elogD ([1]; Table 800 compounds): 1.24

Compound: CN(CCCN1c2ccccc2CCc2ccccc21)S(=O)(=O)c1ccc(OC(F)(F)F)cc1 [TR-ALKBH5-40]
IC50 (FTO; [4]): 59.4 µM
IC50 (ALKBH5; [5]): 2.3 µM
elogD ([1]; Table 800 compounds): 2.05

Compound: O=C(C1CC1)N1CCN(S(=O)(=O)c2ccc(OC(F)(F)F)cc2)CC1 [TR-ALKBH5-41]
chromatographic logD [1]: 0.79

Compound: CC1(C)S[C@@H]2[C@H](N)C(=O)N2[C@H]1C(=O)O [ALK-07]
IC50 (FTO; [2]): > 40 µM
IC50 (ALKBH5; [3]): 10 ± 2.8 µM
elogD ([1]; Table 700 compounds): 0.95

Compound: COC(=O)C1COC(c2ccc(-c3ccccc3)s2)N1 (stereo not drawn) [ALK-25]
IC50 (FTO; [2]): > 40 µM
IC50 (ALKBH5; [3]): 0.9 ± 0.2 µM
elogD ([1]; Table 700 compounds): 1.17

Compound: Cc1ccc2c(CNCC3(N4CCCC4)COC3)c[nH]c2c1 [TR-FTO-42]
IC50 (FTO; [6]): 3 µM
IC50 (ALKBH5; [7]): 13.4 µM

Further lines, results first:

IC50 (FTO; read-out: Enzymatic IC50 FTO): 8.31 ± 2.07 µM
Compound: COc1ccccc1C(=O)N1CC(Oc2ccccc2)CC1C(=O)Nc1ccc(C(C)=O)cc1 (stereo not drawn) [TR-FTO 2-05]

IC50 (FTO; read-out: Enzymatic IC50 FTO): 0.17 ± 0.03 µM
Compound: COc1ccccc1C(=O)N1CC(Oc2ccccc2)CC1C(=O)NCc1cccnc1 (stereo not drawn) [TR-FTO 2-07]

IC50 (ALKBH5; [7]): 3.3 µM
elogD [1]: 0.75
Compound: c1cc2cc(CNCC3(N4CCCC4)COC3)ccc2[nH]1 [TR-FTO-37]

IC50 (FTO; [4]): 285 µM
IC50 (ALKBH5; [5]): 0.25 µM
elogD ([1]; Table 800 compounds): 0.83
Compound: C[C@@H](NS(=O)(=O)c1ccc(OC(F)(F)F)cc1)c1cccnc1 [TR-ALKBH5-42]

IC50 (ALKBH5; [7]): 5.9 µM
elogD [1]: 0.55
Compound: c1cc2c(cc1CNCC1(N3CCCC3)COC1)OCCO2 [TR-FTO-27]

IC50 (FTO; read-out: Enzymatic IC50 FTO): > 40 µM
Compound: COc1ccccc1C(=O)N1CC(Oc2ccccc2)CC1C(=O)Nc1cccc(F)c1O (stereo not drawn) [TR-FTO 2-09]

IC50 (FTO; read-out: Enzymatic IC50 FTO): 12.5 ± 2.7 µM
Compound: COc1ccccc1C(=O)N1CC(Oc2ccccc2)CC1C(=O)NCc1ccccn1 (stereo not drawn) [TR-FTO 2-06]

IC50 (ALKBH5; [7]): 3 µM
elogD [1]: 1.29
Compound: FC(F)(F)Sc1ccc(CNCC2(N3CCCC3)COC2)cc1 [TR-FTO-40]

IC50 (ALKBH5; [7]): 30.5 µM
elogD [1]: 1.03
Compound: Fc1ccc2[nH]cc(CNCC3(N4CCC(F)C4)COC3)c2c1 (stereo not drawn) [TR-FTO-45]

IC50 (FTO; read-out: Enzymatic IC50 FTO): 10.3 ± 2.29 µM
Compound: COc1ccccc1C(=O)N1CC(Oc2ccccc2)CC1C(=O)Nc1ccccc1SC (stereo not drawn) [TR-FTO 2-08]

IC50 (ALKBH5; [7]): 3.4 µM
elogD [1]: 1.57
Compound: c1ccc(-c2ccc(CNCC3(N4CCCC4)COC3)s2)cc1 [TR-FTO-38]

chromatographic logD [1]: 0.95
Compound: Fc1ccc2c(CNCC3(N4CCC(F)C4)COC3)c[nH]c2c1 (stereo not drawn) [TR-FTO-44]

Ki (YTHDF2; Ki values for YTH library against YTHDF2, read-out: Ki): 266 ± 92 pM
Ki (YTHDF2; read-out: Ki (pM) YTHDF2): 266 ± 92 pM
Ki (YTHDF2; read-out: Ki YTHDF2): 266 ± 92 pM
Compound: CN(C)Cc1ccc(NCc2ccc(C(F)(F)F)cc2)nc1 [TR-YTH-20]

IC50 (ALKBH5; [7]): 55 µM
elogD [1]: 1.14
Compound: c1ccc(-c2ccc(CNCC3(N4CCCC4)COC3)o2)cc1 [TR-FTO-35]
